Measurements: article PMC12202309 (International Journal of Neuropsychopharmacology, 2025)
“And” between values parts separate entries of the source, which are not always exact repeats. Identical values can stand only once. Blank lines part the entries; values can stand above or below the compound they belong to.

Experiments:
[1] = C57BL/6N, mouse, in vivo
Method: (§4) The individual values of the pharmacokinetic parameters were obtained as empirical Bayes estimates.
(§5) In the second step, the concentration-time data after the intravenous administration of DMO were modelled to assess distribution and elimination of the metabolite. […] The PK parameters of DMO were fixed to the values estimated after a single IV dose of the metabolite. […] The goodness-of-fit achieved by the pharmacokinetic models was assessed with the help of the objective function value and diagnostic plots of 1/observed and predicted concentrations vs. time, 2/ observed vs. individually predicted concentrations, 3/ weighted residuals vs. time and 4/ weighted residuals vs. predicted concentrations. Finally, the mean prediction errors and the mean absolute prediction errors were calculated.
(§6) The between-animal variability in model parameters were described by an exponential model and a proportional model was used to describe the residual variability.

[2] = protonated form; no reference given; cited from earlier work
[3] = in vivo; settings: for AUC(0-t): plasma, AUCt plasma, mean (95% CI)
Method: (§1) After a 1-week acclimation period, the mice were randomly assigned to 2 experimental groups of 36 animals each: (1) an LPS group was given a single 4 mg/kg intraperitoneal (IP) injection of lipopolysaccharide (LPS), serotype O55:B05 (Sigma) and (2) a control group received a vehicle (sterile phosphate-buffered saline). […] The volume load for mice weighing 25 g was 125 µL. […] The doses of DMSO and MC were 276 and 25 mg/kg. […] Sampling was performed at 2 intervals in each of the 18 mice injected with LPS and 18 controls. The first blood volume of 150 µL was taken into an EDTA-microvette CB 300 (Sardstedt) from a drop of blood after a small incision at the end of the tail. At the termination interval, the second blood sample was collected by cardiac puncture in terminal anesthesia, and then the animal was put to death by decapitation. […] The injected volume was 1 mL/kg, that is, 25 µL for a 25 g mouse. […] The injected volume was 2.5 mL/kg, that is, […]. After IV administrations, blood was sampled at 3, 5, 10, 20, and 40 minutes, and 1, 1.5, 2, 3, 4, and 6 hours. Blood samples were taken at 3 intervals in each mouse. The first 2 samples of 75 µL each were taken from the retroorbital plexus under brief anesthesia and the third terminal sample was described for oral dosing. Plasma samples were obtained from whole blood by centrifugation at 2000 × g for 5 minutes at 4°C. Whole brain, liver, and intestine were excised and immediately frozen in liquid nitrogen. All samples were stored at −80°C until analysis.
(§2) Details of the analysis can be found in the Supplementary Materials.
The calculation of the point estimate and the 95% bootstrap t-confidence interval for AUCt was performed with the help of the R-package PK (https://cran.r-project.org/web/packages/PK/index.html). Total brain-to-plasma drug partition coefficient (Kp,brain) and unbound brain-to-unbound plasma partition coefficient (Kp,uu, brain) were calculated using Equations 3 and 4: […]

[4] = Rapid equilibrium dialysis, protein binding in plasma; assay type: in vitro ADME; settings: C57BL/6N, mouse, plasma (pooled samples from the study mice), mean (range)
Method: (§3) Plasma samples collected from individual mice at each time point were pooled into composite samples due to insufficient sample volumes for performing RED. Similarly, brain homogenate samples from individual time points were pooled. RED was performed according to the manufacturer’s protocol (for details, see the Supplementary Materials). The free drug fraction in plasma was calculated by using Equation 1:
Rapid Equilibrium Dialysis. Briefly, 50 µL of drug-spiked plasma or 100 µL of 10-fold diluted brain homogenates were added to the sample chambers of the RED device, while 300 µL or 350 µL of phosphate-buffered saline (PBS, pH at 7.4) were added to the corresponding buffer chambers. Each pooled sample was analysed in triplicate. Control samples consisting of plasma and brain homogenates from the study, spiked with clozapine and trazodone at a target concentration of 100 ng/mL, were analysed in each measurement series. Each plate was sealed with aluminium foil and incubated at 37 ± 1 °C with an agitation at 350 rpm on an orbital shaker (Randox PHMP, Grant Instruments Ltd, Shepreth, Cambridgeshire, England) for 4 hours. After incubation, a matrix-matching procedure was performed: 10 µL of each post-dialysis sample was mixed with an equal volume of PBS, while 10 µL of each buffer sample was mixed with the corresponding blank plasma or brain homogenate. […]

[5] = Rapid equilibrium dialysis, binding in brain homogenates; assay type: in vitro ADME, mice; settings: C57BL/6N, mouse; for fraction unbound at 4 h: mean (range), pooled samples, read-out: unbound fraction in the brain homogenate; for fraction unbound at 4 h, 100 ng/mL: pH 7.4, RED control samples spiked at 100 ng/mL, range, read-out: unbound fraction in brain homogenate, control samples
Method: as §3, with “1: […]” for “1:”
The free drug fraction in the brain homogenate was determined by using Equation 2, which accounts for the effect of tissue dilution on the unbound fraction:
fu,brain=1/D/(1/fu,diluted−1)+1/D
were D is the dilution factor in the brain homogenate and the fu,diluted associated free fraction determined as the ratio of concentrations in the buffer versus the diluted brain tissue.
Rapid Equilibrium Dialysis. Briefly, 50 µL of drug-spiked plasma or 100 µL of 10-fold diluted brain homogenates were added to the sample chambers of the RED device, while 300 µL or 350 µL of phosphate-buffered saline (PBS, pH at 7.4) were added to the corresponding buffer chambers. Each pooled sample was analysed in triplicate. Control samples consisting of plasma and brain homogenates from the study, spiked with clozapine and trazodone at a target concentration of 100 ng/mL, were analysed in each measurement series. Each plate was sealed with aluminium foil and incubated at 37 ± 1 °C with an agitation at 350 rpm on an orbital shaker (Randox PHMP, Grant Instruments Ltd, Shepreth, Cambridgeshire, England) for 4 hours. After incubation, a matrix-matching procedure was performed: 10 µL of each post-dialysis sample was mixed with an equal volume of PBS, while 10 µL of each buffer sample was mixed with the corresponding blank plasma or brain homogenate. Prior to analysis, 20 µL of the mixed plasma or brain homogenate samples were precipitated with 80 µL of acetonitrile containing an internal standard.

[6] = Brain penetration (brain homogenate AUCt, Kp,brain, Kp,uu,brain); settings: for Kp uu / Kp: C57BL/6N, mouse, brain, 0.5 mg/kg; for Kp uu: Kp,uu,brain; for Kp: Kp,brain; for AUCt brain homogenate: 4 mg/kg PO OL, t = 24 hours, mean (95% CI); for animals with brain homogenate concentration below the detection limit of 0.20 ng/g: PO olanzapine
Method: as §1, §2
The calculation of the point estimate and the 95% bootstrap t-confidence interval for AUCt was performed with the help of the R-package PK (https://cran.r-project.org/web/packages/PK/index.html). Total brain-to-plasma drug partition coefficient (Kp,brain) and unbound brain-to-unbound plasma partition coefficient (Kp,uu, brain) were calculated using Equations 3 and 4:
Kp,brain=AUCt,brain/AUCt,plasma
Kp, uu,brain=fu,brain × AUCt,brain/fu, plasma × AUCt,plasma

[7] = Population compartmental pharmacokinetic modelling of olanzapine and DMO;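 also: pharmacokinetic model fitted to concentration-time data, with between-animal variability described exponentially, residual error proportional, and effect of LPS injection assessed on clearance and distribution volumes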
Method: as §4, §5, §6

[8] = system: mice; design: method as in supplement 4; settings: p.o., ref supplement 4; cited from earlier work
[9] = design: method as in supplement 9; settings: rat; 15 % (w:v) DMSO (660 mg/kg) in 0.5 % MC p.o.; ref supplement 9; cited from earlier work

SMILES: Cc1cc2c(s1)Nc1ccccc1N=C2N1CCNCC1 [DMO, 4’-N-desmethylolanzapine]
- Q [1]: 2.51 (30%) L·hour^−1.kg^-1
- V1 [1]: 1.6 (14%) L.kg^-1
- V2 [1]: 1.49 (14%) L.kg^-1
- decrease in the plasma clearance of DMO in LPS mice [1]: 4.8 fold
- βCL_LPS [1]: -1.54 (21%)
- βV1_LPS [1]: -1.2 (15%)
- βV2_LPS [1]: -0.56 (38%)
- ωCL, percent interindividual variability [1]: 54 (34%)
- ωQ, percent interindividual variability [1]: 17 (90%)
- ωV1, percent interindividual variability [1]: 37 (18%)
- ωV2, percent interindividual variability [1]: 13 (122%)
- decrease of median V1 by LPS in comparison to controls ([1]; iv): 70%
- decrease of median V2 by LPS in comparison to controls ([1]; iv): 43%
- pKa [2]: 8.8
- increase of mean plasma AUC24h, LPS mice vs controls ([3]; C57BL/6N, mouse, in vivo, 4 mg/kg): 2.6 fold
- increase of plasma AUC in LPS mice ([3]; C57BL/6N, mouse, in vivo, po): 140%
- AUC(0-t) ([3]; C57BL/6N, mouse, iv, 0.5 mg/kg, Controls, 0.5 mg/kg IV DMO, t = 6 hours): 562 ng·h/mL
- AUC(0-t) ([3]; C57BL/6N, mouse, iv, 0.5 mg/kg, Controls, 0.5 mg/kg IV olanzapine, t = 6 hours): 28.7 ng·h/mL
- AUC(0-t) ([3]; C57BL/6N, mouse, iv, 0.5 mg/kg, LPS mice, 0.5 mg/kg IV DMO, t = 6 hours): 1690 ng·h/mL
- AUC(0-t) ([3]; C57BL/6N, mouse, iv, 0.5 mg/kg, LPS mice, 0.5 mg/kg IV olanzapine, t = 6 hours): 57.6 ng·h/mL
- AUC(0-t) ([3]; C57BL/6N, mouse, po, 4 mg/kg, Controls, 4 mg/kg PO olanzapine, t = 24 hours): 408 ng·h/mL
- AUC(0-t) ([3]; C57BL/6N, mouse, po, 4 mg/kg, LPS mice, 4 mg/kg PO olanzapine, t = 24 hours): 1070 ng·h/mL
- fraction unbound at 4 h ([4]; pH 7.4, LPS mice): 0.083
- fraction unbound at 4 h ([4]; pH 7.4, control mice): 0.13
- fraction unbound at 4 h ([5]; pH 7.4, LPS mice): 0.088
- fraction unbound at 4 h ([5]; pH 7.4, control mice): 0.087
- Kp uu ([6]; intravenous, abstract, LPS and control mice): ≤ 0.051
- Kp ([6]; iv, Controls, 0.5 mg/kg IV DMO): 0.077
- Kp ([6]; iv, LPS mice, 0.5 mg/kg IV DMO): 0.039
- Kp uu ([6]; iv, Controls, 0.5 mg/kg IV DMO): 0.051
- Kp uu ([6]; iv, LPS mice, 0.5 mg/kg IV DMO): 0.042
- AUCt brain homogenate ([6]; Controls): trace levels^b
- brain homogenate levels after IV olanzapine ([6]; LPS animals and controls, IV olanzapine): neither the LPS animals nor the controls had any brain homogenate levels of DMO higher than the limits of detection
- animals with brain homogenate concentration below the detection limit of 0.20 ng/g ([6]; LPS group): 4 of 18
- AUCt brain homogenate ([6]; LPS mice): trace levels^b
- animals with brain homogenate concentration below the detection limit of 0.20 ng/g ([6]; control group): 5 of the 18
- clearance ([7]; C57BL/6N, mouse, plasma): 10.3 mL/min/kg

SMILES: C[S+](C)[O-] [DMSO, dimethyl sulfoxide]
- LD50 [8]: 16500 to 24600 mg/kg

SMILES: O=C1CCc2cc(OCCCCc3nnnn3C3CCCCC3)ccc2N1 [cilostazole]
- increase of AUC for plasma cilostazole by DMSO [9]: 32%

- fraction unbound at 4 h, 100 ng/mL [5]: 0.014 to 0.021
SMILES: CN1CCN(C2=Nc3cc(Cl)ccc3Nc3ccccc32)CC1 [clozapine]

SMILES: Cc1cc2c(s1)Nc1ccccc1N=C2N1CCN(C)CC1 [olanzapine]
- Q [1]: 9.0 (31%) L·hour^−1.kg^-1
- V1 [1]: 4.1 (13%) L.kg^-1
- V2 [1]: 3.5 (18%) L.kg^-1
- higher absolute bioavailability in LPS mice [1]: 200%
- βCL_LPS [1]: -0.43 (42%)
- βF_LPS [1]: 1.14 (14%)
- ωCL, percent interindividual variability [1]: 24 (37%)
- ωF, percent interindividual variability [1]: 16 (38%)
- ωQ, percent interindividual variability [1]: 73 (49%)
- ωV1, percent interindividual variability [1]: 45 (32%)
- ωV2, percent interindividual variability [1]: 83 (20%)
- increase of mean plasma AUC24h, LPS mice vs controls ([3]; 4 mg/kg PO olanzapine): 3.8 fold
- CL/F ([3]; mouse, in vivo, po, 4 mg/kg): 552 mL/min/kg
- brain AUC higher in LPS mice than controls ([6]; intravenous olanzapine 0.5 mg/kg): 1.8 fold
- brain AUC higher in LPS mice than controls ([6]; oral olanzapine 4 mg/kg): 5.2 fold and 5 fold
- Fp.o. olanzapine ([7]; population median (%RSE), reference group controls): 0.075 (12%)

- fraction unbound at 4 h, 100 ng/mL [5]: 0.078 to 0.118
SMILES: O=c1n(CCCN2CCN(c3cccc(Cl)c3)CC2)nc2ccccn12 [trazodone]
